Laboratory results reported in US20090030039A1, “Piperidine Derivatives as Cxcr3 Receptor Antagonists” (priority 2006, published 2009).
Where a name gives a salt, the structure may show the parent alone.

Tested on: not given
Test: not given
Conditions: not given

| melting point [°C] | SMILES |
| --- | --- |
| 287.8 | Cl.Nc1cc(CN2CCC(C3(c4ccccc4)CCC(=O)NC3=O)CC2)ccc1Cl (centres unmarked) |
| 244.4 to 248.3 | O=C1CCC(c2ccccc2)(C2CCN(Cc3ccc(Cl)c([N+](=O)[O-])c3)CC2)C(=O)N1 (centres unmarked) (as salt: HCl) [Compound 12] |
| 192 to 194.3 | O=C1CCC(c2ccccc2)(C2CCN(Cc3ccc(Cl)c(F)c3)CC2)C(=O)N1 (single isomer, unassigned) [Compound 40] |

Target: T1, human CXCR3 (Homo sapiens, UniProt P49682)
T1 construct: expressed in transfected cells; host or cells: CHO cells (membrane preparation)
T1 sequence (P49682 1-368): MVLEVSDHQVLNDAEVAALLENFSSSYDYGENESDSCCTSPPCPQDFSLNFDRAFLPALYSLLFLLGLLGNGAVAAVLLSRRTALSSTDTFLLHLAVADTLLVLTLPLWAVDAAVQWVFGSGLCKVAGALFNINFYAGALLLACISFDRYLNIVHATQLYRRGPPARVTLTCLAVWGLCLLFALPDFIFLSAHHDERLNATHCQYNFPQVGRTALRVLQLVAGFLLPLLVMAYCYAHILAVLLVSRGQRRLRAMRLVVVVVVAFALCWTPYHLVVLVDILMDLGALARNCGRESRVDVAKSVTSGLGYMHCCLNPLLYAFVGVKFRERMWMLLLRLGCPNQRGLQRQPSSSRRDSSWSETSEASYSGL
Test: [35S]GTPγS exchange assay, CXCR3 receptor inhibition (hI-TAC-induced GTPγS-binding)
Assay type: biochemical
Conditions: -log IC50 (molar) inhibiting 50% of specific I-TAC-induced GTPγS-binding; membranes of human CXCR3-transfected CHO cells
Experimental: CXCR3 Receptor Inhibition was Examined in a [^35S]GTPγS Exchange Assay
The exchange of guanosine 5′-[^35S]triphosphate was measured on membranes of human CXCR3-transfected CHO cells. [^35S]GTPγS exchange assays were performed in 96-well plates with 10 μg of membrane protein/well using basic flashplates (Perkin Elmer). Compounds were dissolved in DMSO and diluted with incubation buffer to yield required concentrations with 9% DMSO. Incubation buffer is composed of 20 mM HEPES, 100 mM NaCl, 3 μM GDP and 1 mM MgCl2, pH 7.4. […] Compound, membranes, hI-TAC (interferon-inducible T-cell alpha chemoattractant) and [^35S]GTPγS were added in a total volume of 200 μl. First, 20 μl of the appropriate compound dilution and 140 μl membranes from CXCR3-CHO cells were dissolved in membrane incubation buffer and pre-incubated for 30 minutes at 30° C. Then, 20 μl of hI-TAC dissolved at 30 nM in incubation buffer was added to the membranes and the mixture containing 1% of DMSO was incubated for another 30 minutes at 30° C. […] After 1 minute shaking and 30 minutes incubation at 30° C., flashplates were centrifuged for 5 minutes at 2500 rpm at room temperature. Flashplate bound radioactivity was determined by liquid scintillation counting. Basal GTPγS-binding was measured in 8 wells with membranes incubated in the same volume with 1% DMSO, without I-TAC. Maximal GTPγS-binding was measured in 8 wells with membranes incubated with 1% DMSO and 3 nM I-TAC. […] IC50 values were calculated using non-linear regression in Graphpad Prism.

| pIC50 | SMILES |
| --- | --- |
| 5.8 | O=C1NCCCC1(c1ccccc1)C1CCN(Cc2ccc(Br)cc2)CC1 (centres unmarked) [Compound 142] |
| 6.0 | O=C1CCC(c2cccnc2)(C2CCN(Cc3ccc(Br)cc3)CC2)C(=O)N1 (centres unmarked) [Compound 178] |
| 5.3 | O=C1CCC(c2ccc(C(=O)O)cc2)(C2CCN(Cc3ccc(Br)cc3)CC2)C(=O)N1 (centres unmarked) [Compound 193] |

Same assay, conditions: -log IC50 (molar) inhibiting 50% of specific I-TAC-induced GTPγS-binding; membranes of human CXCR3-transfected CHO cells; read-out: pIC50 (converted)

| SMILES | IC50 [nM] |
| --- | --- |
| O=C1CCC(c2ccccc2)(C2CCN(Cc3ccc(Cl)c(F)c3)CC2)C(=O)N1 (single isomer, unassigned) [Compound 40] | 398 |
| COC(=O)CCN1C(=O)CCC(c2ccccc2)(C2CCN(Cc3ccc(C(F)(F)F)cc3)CC2)C1=O (centres unmarked) [Compound 132] | 631 |
| O=C1CCC(c2ccccc2)(C2CCN(Cc3ccc(F)cc3)CC2)CN1 (centres unmarked) [Compound 133] | 1580 |
| O=C1CCC(c2ccc(F)cc2)(C2CCN(Cc3ccc(F)c(Cl)c3)CC2)CN1 (centres unmarked) [Compound 134] | 3980 |
| O=C1CCC(c2ccccc2)(C2CCN(Cc3ccc(Cl)cc3)CC2)CN1 (centres unmarked) [Compound 135] | 1000 |
| O=C1CCC(c2ccc(F)cc2)(C2CCN(Cc3ccc(Cl)cc3)CC2)CN1 (centres unmarked) [Compound 136] | 794 |
| O=C1CCC(c2ccccc2)(C2CCN(Cc3ccc(Cl)cc3Cl)CC2)CN1 (centres unmarked) [Compound 137] | 631 |
| O=C1CCC(c2ccc(F)cc2)(C2CCN(Cc3ccc(Cl)cc3Cl)CC2)CN1 (centres unmarked) [Compound 138] | 1580 |
| O=C1CCC(c2ccc(F)cc2)(C2CCN(Cc3ccc(Cl)c(F)c3)CC2)CN1 (centres unmarked) [Compound 139] | 1580 |
| O=C1CCC(c2ccccc2)(C2CCN(Cc3ccc(Cl)c(Cl)c3)CC2)CN1 (centres unmarked) [Compound 140] | 794 |
| O=C1CCC(c2ccc(F)cc2)(C2CCN(Cc3ccc(Cl)c(Cl)c3)CC2)CN1 (centres unmarked) [Compound 141] | 1580 |
| O=C1CCC(c2ccc(F)cc2)(C2CCN(Cc3ccc(Br)cc3)CC2)CN1 (centres unmarked) [Compound 143] | 631 |
| CC(c1ccc(Br)cc1)N1CCC(C2(c3ccc(F)cc3)CCC(=O)NC2)CC1 (centres unmarked) [Compound 144] | 631 |
| Cc1cc(CN2CCC(C3(c4ccc(F)cc4)CCC(=O)NC3)CC2)ccc1Br (centres unmarked) [Compound 145] | 794 |
| O=C1CCC(c2ccccc2)(C2CCN(Cc3ccc(C(F)(F)F)cc3)CC2)CN1 (centres unmarked) [Compound 146] | 2510 |
| O=C1CCC(c2ccc(F)cc2)(C2CCN(Cc3ccc(OC(F)F)cc3)CC2)CN1 (centres unmarked) [Compound 147] | 3980 |
| O=C1CCC(c2ccccc2)(C2CCN(Cc3ccc(OCc4ccc(Cl)cc4)cc3)CC2)CN1 (centres unmarked) [Compound 148] | 6310 |
| O=C1CCC(c2cccc(Cl)c2)(C2CCN(Cc3ccc4ccccc4c3)CC2)C(=O)N1 (centres unmarked) [Compound 149] | 5010 |
| O=C1CCC(c2ccc(F)cc2)(C2CCN(Cc3ccc4ccccc4c3)CC2)C(=O)N1 (centres unmarked) [Compound 150] | 1000 |
| O=C1CCC(c2ccccc2)(C2CCN(Cc3ccc(Cl)s3)CC2)C(=O)N1 (centres unmarked) [Compound 151] | 3160 |
| O=C1CCC(c2cccc(Cl)c2)(C2CCN(Cc3ccc(Cl)s3)CC2)C(=O)N1 (centres unmarked) [Compound 152] | 794 |
| O=C1CCC(c2ccc(F)cc2)(C2CCN(Cc3ccc(Cl)s3)CC2)C(=O)N1 (centres unmarked) [Compound 153] | 1260 |
| O=C1CCC(c2ccccc2)(C2CCN(Cc3ccc(Cl)s3)CC2)C(=O)N1 (centres unmarked) [Compound 154] | 2510 |
| Cc1cc(C)c(CN2CCC(C3(c4ccccc4)CCC(=O)NC3=O)CC2)c(C)c1 (centres unmarked) [Compound 157] | 3160 |
| O=C1CCC(c2ccccc2)(C2CCN(Cc3cc4cc(Br)ccc4o3)CC2)C(=O)N1 (centres unmarked) [Compound 158] | 1260 |
| O=C1CCC(c2ccncc2)(C2CCN(Cc3ccc(Cl)c(Cl)c3)CC2)C(=O)N1 (centres unmarked) [Compound 169] | 1000 |
| O=C1CCC(c2ccc(F)cc2F)(C2CCN(Cc3ccc(Br)c(F)c3)CC2)C(=O)N1 (centres unmarked) [Compound 197] | 398 |
| O=C1CCC(c2ccc(F)cc2F)(C2CCN(Cc3ccc4nonc4c3)CC2)C(=O)N1 (centres unmarked) [Compound 207] | 398 |

More lines, now with the values ahead:

| IC50 [nM] | SMILES |
| --- | --- |
| 2510 | O=C1CCC(c2ccccc2)(C2CCN(Cc3cc(F)c(F)cc3F)CC2)C(=O)N1 (centres unmarked) [Compound 155] |
| 794 | O=C1CCC(c2ccc(F)cc2)(C2CCN(Cc3cc(F)c(F)cc3F)CC2)C(=O)N1 (centres unmarked) [Compound 156] |
| 316 | O=C1CCC(c2cccc(C(=O)O)c2)(C2CCN(Cc3cc4cc(Br)ccc4o3)CC2)C(=O)N1 (centres unmarked) [Compound 160] |
| 3160 | O=C1CCC(c2ccc(F)cc2)(C2CCN(Cc3cc4cc(Br)ccc4o3)CC2)C(=O)N1 (centres unmarked) [Compound 161] |
| 3980 | O=C1CCC(c2ccc(F)cc2)(C2CCN(Cc3ccc4nonc4c3)CC2)C(=O)N1 (centres unmarked) [Compound 163] |
| 1000 | CC(c1ccc(Br)cc1)N1CCC(C2(c3cccc(Cl)c3)CCC(=O)NC2=O)CC1 (centres unmarked) [Compound 164] |
| 794 | CC(c1ccc(Br)cc1)N1CCC(C2(c3cccc(C(=O)O)c3)CCC(=O)NC2=O)CC1 (centres unmarked) [Compound 165] |
| 1580 | CC(c1ccc(Br)cc1)N1CCC(C2(c3ccncc3)CCC(=O)NC2=O)CC1 (centres unmarked) [Compound 171] |
| 5010 | O=C1CCC(c2ccncc2)(C2CCN(Cc3ccc(-c4ccccc4)cc3)CC2)C(=O)N1 (centres unmarked) [Compound 174] |
| 1000 | O=C1CCC(c2cccnc2)(C2CCN(Cc3ccc(F)c(F)c3F)CC2)C(=O)N1 (centres unmarked) [Compound 175] |
| 2000 | O=C1CCC(c2cccnc2)(C2CCN(Cc3ccc(Cl)c(F)c3)CC2)C(=O)N1 (centres unmarked) [Compound 176] |
| 1000 | O=C1CCC(c2cccnc2)(C2CCN(Cc3ccc(Cl)c(Cl)c3)CC2)C(=O)N1 (centres unmarked) [Compound 177] |
| 2000 | O=C1CCC(c2cccnc2)(C2CCN(Cc3ccc(Br)cc3F)CC2)C(=O)N1 (centres unmarked) [Compound 179] |
| 2510 | O=C1CCC(c2cccnc2)(C2CCN(Cc3ccc(OC(F)(F)F)cc3)CC2)C(=O)N1 (centres unmarked) [Compound 180] |
| 1260 | O=C1CCC(c2ccncc2)(C2CCN(Cc3cc4cc(Br)ccc4o3)CC2)C(=O)N1 (centres unmarked) [Compound 183] |
| 1580 | O=C1CCC(c2cccnc2)(C2CCN(Cc3cc4cc(Br)ccc4o3)CC2)C(=O)N1 (centres unmarked) [Compound 184] |

| IC50 [nM] | SMILES |
| --- | --- |
| > 10000 | O=C1CCC(c2ccc([N+](=O)[O-])cc2)(C2CCN(Cc3ccccc3[N+](=O)[O-])CC2)C(=O)N1 (centres unmarked) [Compound 186] |
| 2000 | O=C1CCC(c2ccccc2)(C2CCN(Cc3ccc(Cl)cc3)CC2)C(=O)N1Cc1ccc(Cl)cc1 (centres unmarked) [Compound 189] |
| 6310 | O=C1CCC(c2ccc(C(=O)O)cc2)(C2CCN(Cc3ccc(F)c(Cl)c3)CC2)C(=O)N1 (centres unmarked) [Compound 190] |
| 5010 | O=C1CCC(c2ccc(C(=O)O)cc2)(C2CCN(Cc3ccc(Cl)cc3)CC2)C(=O)N1 (centres unmarked) [Compound 191] |
| 2510 | O=C1CCC(c2ccc(F)c(F)c2)(C2CCN(Cc3ccc(Cl)c(F)c3)CC2)C(=O)N1 (centres unmarked) [Compound 192] |
| 316 | Cc1cc(CN2CCC(C3(c4ccc(F)cc4F)CCC(=O)NC3=O)CC2)ccc1Br (centres unmarked) [Compound 196] |
| 251 | O=C1CCC(c2ccc(F)cc2F)(C2CCN(Cc3ccc(Br)cc3F)CC2)C(=O)N1 (centres unmarked) [Compound 198] |
| 251 | O=C1CCC(c2ccc(F)cc2F)(C2CCN(Cc3ccc(Cl)cc3)CC2)C(=O)N1 (centres unmarked) [Compound 199] |
| 631 | O=C1CCC(c2ccc(F)cc2F)(C2CCN(Cc3ccc(Cl)cc3Cl)CC2)C(=O)N1 (centres unmarked) [Compound 200] |
| 398 | O=C1CCC(c2ccc(F)cc2F)(C2CCN(Cc3ccc(Cl)c(Cl)c3)CC2)C(=O)N1 (centres unmarked) [Compound 201] |
| 631 | O=C1CCC(c2ccc(F)cc2F)(C2CCN(Cc3ccc(OC(F)F)cc3)CC2)C(=O)N1 (centres unmarked) [Compound 205] |
| 1260 | O=C1CCC(c2ccc(F)cc2F)(C2CCN(Cc3cc4cc(Br)ccc4o3)CC2)C(=O)N1 (centres unmarked) [Compound 206] |
| 158 | CC(c1ccc(Br)cc1)N1CCC(C2(c3ccc(F)cc3F)CCC(=O)NC2=O)CC1 (centres unmarked) [Compound 208] |
| 501 | CC1CC(=O)NC(=O)C1(c1ccccc1)C1CCN(Cc2ccc(Br)cc2)CC1 (centres unmarked) [Compound 209] |
| 1260 | CC(=O)N1CC(c2ccccc2)(C2CCN(Cc3ccc(Br)cc3)CC2)CCC1=O (centres unmarked) [Compound 210] |
